Reference: patent US20240041991A1, “STABLE LIQUID DISPERSINB COMPOSITIONS” (KANE BIOTECH INC., priority 2020, published 2024)
Like-named read-outs stand apart in the source and are kept apart here. Marks after values point to notes of the source that are not given here.

System: DispersinB
Type: biochemical, Aggregatibacter actinomycetemcomitans
Details: for % enzymatic activity of DispersinB (Mean): polyol % as in label
Protocol: Samples from each formula was incubated at 3 different temperatures (42° C., 52° C. and 62° C.) for 3 hours. Following a 3 hour incubation, the samples were brought to room temperature for enzymatic activity assay.
Two-tailed paired T-test was performed by to compare each polyol containing treatment with the treatment devoid of polyol. Treatment with probability values (p) less than 5% (0.05) was considered significant.

Structure (SMILES): OC[C@@H](O)[C@H](O)[C@@H](O)CO [xylitol, Xylitol]
- % enzymatic activity of DispersinB (Mean) (4° C., freshly made control without polyol = 100%, listed as 0.25% Xylitol): 98%
- % enzymatic activity of DispersinB (Mean) (4° C., freshly made control without polyol = 100%, listed as 0.5% Xylitol): 106%
- % enzymatic activity of DispersinB (Mean) (4° C., freshly made control without polyol = 100%, listed as 1% Xylitol): 97%
- % enzymatic activity of DispersinB (Mean) (4° C., freshly made control without polyol = 100%, listed as 2% Xylitol): 117* %
- % enzymatic activity of DispersinB (Mean) (4° C., freshly made control without polyol = 100%, listed as 4% Xylitol): 120* %
- % enzymatic activity of DispersinB (Mean) (4° C., freshly made control without polyol = 100%, listed as 6% Xylitol): 115%
- % enzymatic activity of DispersinB (Mean) (4° C., freshly made control without polyol = 100%, listed as 8% Xylitol): 118%
- % enzymatic activity of DispersinB (Mean) (4° C., freshly made control without polyol = 100%, listed as 10% Xylitol): 107%
- % enzymatic activity of DispersinB (Mean) (4° C., freshly made control without polyol = 100%, listed as 20% Xylitol): 91* %
- % enzymatic activity of DispersinB (Mean) (4° C., freshly made control without polyol = 100%, listed as 30% Xylitol): 85* %
- % enzymatic activity of DispersinB (Mean) (4° C., freshly made control without polyol = 100%, listed as 40% Xylitol): 86* %
- % enzymatic activity of DispersinB (Mean) (42° C. for 3 hours, control without polyol = 100%, listed as 0.25% Xylitol): 90%
- % enzymatic activity of DispersinB (Mean) (42° C. for 3 hours, control without polyol = 100%, listed as 0.5% Xylitol): 85%
- % enzymatic activity of DispersinB (Mean) (42° C. for 3 hours, control without polyol = 100%, listed as 1% Xylitol): 88%
- % enzymatic activity of DispersinB (Mean) (42° C. for 3 hours, control without polyol = 100%, listed as 2% Xylitol): 101* %
- % enzymatic activity of DispersinB (Mean) (42° C. for 3 hours, control without polyol = 100%, listed as 4% Xylitol): 91%
- % enzymatic activity of DispersinB (Mean) (42° C. for 3 hours, control without polyol = 100%, listed as 6% Xylitol): 97%
- % enzymatic activity of DispersinB (Mean) (42° C. for 3 hours, control without polyol = 100%, listed as 8% Xylitol): 93%
- % enzymatic activity of DispersinB (Mean) (42° C. for 3 hours, control without polyol = 100%, listed as 10% Xylitol): 86%
- % enzymatic activity of DispersinB (Mean) (42° C. for 3 hours, control without polyol = 100%, listed as 20% Xylitol): 80%
- % enzymatic activity of DispersinB (Mean) (42° C. for 3 hours, control without polyol = 100%, listed as 30% Xylitol): 71* %
- % enzymatic activity of DispersinB (Mean) (42° C. for 3 hours, control without polyol = 100%, listed as 40% Xylitol): 72* %
- % enzymatic activity of DispersinB (Mean) (52° C. for 3 hours, control without polyol = 100%, listed as 0.25% Xylitol): 6%
- % enzymatic activity of DispersinB (Mean) (52° C. for 3 hours, control without polyol = 100%, listed as 0.5% Xylitol): 7%
- % enzymatic activity of DispersinB (Mean) (52° C. for 3 hours, control without polyol = 100%, listed as 1% Xylitol): 9* %
- % enzymatic activity of DispersinB (Mean) (52° C. for 3 hours, control without polyol = 100%, listed as 2% Xylitol): 17* %
- % enzymatic activity of DispersinB (Mean) (52° C. for 3 hours, control without polyol = 100%, listed as 4% Xylitol): 26* %
- % enzymatic activity of DispersinB (Mean) (52° C. for 3 hours, control without polyol = 100%, listed as 6% Xylitol): 43* %
- % enzymatic activity of DispersinB (Mean) (52° C. for 3 hours, control without polyol = 100%, listed as 8% Xylitol): 53* %
- % enzymatic activity of DispersinB (Mean) (52° C. for 3 hours, control without polyol = 100%, listed as 10% Xylitol): 61* %
- % enzymatic activity of DispersinB (Mean) (52° C. for 3 hours, control without polyol = 100%, listed as 20% Xylitol): 69* %
- % enzymatic activity of DispersinB (Mean) (52° C. for 3 hours, control without polyol = 100%, listed as 30% Xylitol): 70* %
- % enzymatic activity of DispersinB (Mean) (52° C. for 3 hours, control without polyol = 100%, listed as 40% Xylitol): 68* %
- % enzymatic activity of DispersinB (Mean) (62° C. for 3 hours, control without polyol = 100%, listed as 8% Xylitol): 1* %
- % enzymatic activity of DispersinB (Mean) (62° C. for 3 hours, control without polyol = 100%, listed as 10% Xylitol): 2* %
- % enzymatic activity of DispersinB (Mean) (62° C. for 3 hours, control without polyol = 100%, listed as 20% Xylitol): 2* %
- % enzymatic activity of DispersinB (Mean) (62° C. for 3 hours, control without polyol = 100%, listed as 30% Xylitol): 3* %
- % enzymatic activity of DispersinB (Mean) (62° C. for 3 hours, control without polyol = 100%, listed as 40% Xylitol): 42* %

Structure (SMILES): O[C@H]1[C@H](O)[C@@H](O)[C@H](O)[C@@H](O)[C@H]1O [inositol, Inositol]
- % enzymatic activity of DispersinB (Mean) (4° C., freshly made control without polyol = 100%, listed as 0.25% Inositol): 104%
- % enzymatic activity of DispersinB (Mean) (4° C., freshly made control without polyol = 100%, listed as 0.5% Inositol): 101%
- % enzymatic activity of DispersinB (Mean) (4° C., freshly made control without polyol = 100%, listed as 1% Inositol): 101%
- % enzymatic activity of DispersinB (Mean) (4° C., freshly made control without polyol = 100%, listed as 2% Inositol): 102%
- % enzymatic activity of DispersinB (Mean) (4° C., freshly made control without polyol = 100%, listed as 4% Inositol): 107* %
- % enzymatic activity of DispersinB (Mean) (4° C., freshly made control without polyol = 100%, listed as 6% Inositol): 112* %
- % enzymatic activity of DispersinB (Mean) (4° C., freshly made control without polyol = 100%, listed as 8% Inositol): 118* %
- % enzymatic activity of DispersinB (Mean) (4° C., freshly made control without polyol = 100%, listed as 10% Inositol): 115* %
- % enzymatic activity of DispersinB (Mean) (4° C., freshly made control without polyol = 100%, listed as 12% Inositol): 118* %
- % enzymatic activity of DispersinB (Mean) (4° C., freshly made control without polyol = 100%, listed as 14% Inositol): 124* %
- % enzymatic activity of DispersinB (Mean) (42° C. for 3 hours, control without polyol = 100%, listed as 0.25% Inositol): 96* %
- % enzymatic activity of DispersinB (Mean) (42° C. for 3 hours, control without polyol = 100%, listed as 0.5% Inositol): 97* %
- % enzymatic activity of DispersinB (Mean) (42° C. for 3 hours, control without polyol = 100%, listed as 1% Inositol): 99* %
- % enzymatic activity of DispersinB (Mean) (42° C. for 3 hours, control without polyol = 100%, listed as 2% Inositol): 101* %
- % enzymatic activity of DispersinB (Mean) (42° C. for 3 hours, control without polyol = 100%, listed as 4% Inositol): 106* %
- % enzymatic activity of DispersinB (Mean) (42° C. for 3 hours, control without polyol = 100%, listed as 6% Inositol): 112* %
- % enzymatic activity of DispersinB (Mean) (42° C. for 3 hours, control without polyol = 100%, listed as 8% Inositol): 126* %
- % enzymatic activity of DispersinB (Mean) (42° C. for 3 hours, control without polyol = 100%, listed as 10% Inositol): 113* %
- % enzymatic activity of DispersinB (Mean) (42° C. for 3 hours, control without polyol = 100%, listed as 12% Inositol): 118* %
- % enzymatic activity of DispersinB (Mean) (42° C. for 3 hours, control without polyol = 100%, listed as 14% Inositol): 115%
- temperature stabilizing effect on DispersinB at elevated temperatures (42° C., 52° C., and 62° C.): exhibited temperature stabilizing effect
- % enzymatic activity of DispersinB (Mean) (52° C. for 3 hours, control without polyol = 100%, listed as 0.5% Inositol): 1* %
- % enzymatic activity of DispersinB (Mean) (52° C. for 3 hours, control without polyol = 100%, listed as 1% Inositol): 3* %
- % enzymatic activity of DispersinB (Mean) (52° C. for 3 hours, control without polyol = 100%, listed as 2% Inositol): 8* %
- % enzymatic activity of DispersinB (Mean) (52° C. for 3 hours, control without polyol = 100%, listed as 4% Inositol): 19* %
- % enzymatic activity of DispersinB (Mean) (52° C. for 3 hours, control without polyol = 100%, listed as 6% Inositol): 37* %
- % enzymatic activity of DispersinB (Mean) (52° C. for 3 hours, control without polyol = 100%, listed as 8% Inositol): 66* %
- % enzymatic activity of DispersinB (Mean) (52° C. for 3 hours, control without polyol = 100%, listed as 10% Inositol): 77* %
- % enzymatic activity of DispersinB (Mean) (52° C. for 3 hours, control without polyol = 100%, listed as 12% Inositol): 86* %
- % enzymatic activity of DispersinB (Mean) (52° C. for 3 hours, control without polyol = 100%, listed as 14% Inositol): 92* %
